This is an account of results in US4262008A, “2,4-Disubstituted 5-oxo-5H-hexahydrofuro[3,2b]pyrroles” (Beecham Group Limited, priority 1978, dated 1981).

The subject of test [1] is platelet aggregation in response to collagen (human platelet-rich plasma). Description: Platelet aggregation in vitro, response to collagen. The format is cell-based. The following applies: human P.R.P., 37° C., 3 min preincubation, 50% inhibition of just-maximal collagen response. Here is the method: (§1) Human blood (20 ml) is drawn into a plastic syringe and immediately anti-coagulated by mixing with 0.1 volumes of 3.8% (w/v) trisodium citrate dihydrate. Platelet-rich plasma (P.R.P.) is prepared by centrifuging the anticoagulated blood of 180 g, for 12 minutes, at room temperature. Collagen "Collagen-reagent Horm" (Hormon-Chemie Munchem, Postfach 101, Germany) is dilated as necessary with 0.9% (w/v) saline and kept on ice. Adenosine 5'-diphosphate (A.D.P.) (Grade 1: sodium salt from equine muscle, Sigma.) is diluted, as necessary with 0.9% saline, from a 10 mM stock solution, pH 6.8 kept at -20° C. The compounds are dissolved freshly to 40 mM in dimethylformamide. P.R.P. is mixed with 0.1 volumes saline and 0.005 volumes compound on dimethylformamide (control) and incubated at 37° C. for 3 minutes before the addition of collagen.
(§2) Platelet aggregation in response to collagen and A.D.P. is measured photometrically (Born G.V.R., 1962, Nature, 194 927) in a Bryston aggregometer coupled to a Vitatron linear pen recorder. The concentration of collagen producing a just-maximal change in light transmittance and the concentration of A.D.P. to produce only a first-phase aggregation response are established in each control P.R.P. The concentration of compounds to inhibit these control response by 50% in each case are determined.

For test [2], the system named is platelet aggregation in response to A.D.P. (human platelet-rich plasma). As to the kind of experiment: Platelet aggregation in vitro, response to A.D.P. It is filed as cell-based. Conditions: human P.R.P., 37° C., 3 min preincubation, 50% inhibition of first-phase aggregation response, read-out: IC50 vs. ADP. The procedure:
as §1, §2

Test [3] deals with 5-hydroxytryptamine induced bronchoconstriction. As to the kind of experiment: Inhibition of 5-hydroxytryptamine induced bronchoconstriction in anaesthetised, artificially respired guinea pig (Konzett-Rossler preparation). The format is in vivo. Here is the method:
1. The compounds were examined for their ability to inhibit 5-hydroxytryptamine induced bronchoconstriction in the anaesthetised, artificially respired guinea pig (Konzett-Rossler preparation). The compounds were administered intravenously.

Test [4] deals with histamine induced changes in pulmonary resistance and lung compliance. Description: Inhibition of histamine induced changes in pulmonary resistance and lung compliance in anaesthetised spontaneously respiring guinea pig. The format is in vivo. The following applies: Cavia porcellus, iv. Here is the method:
2. The compounds were tested for their ability to inhibit histamine induced changes in pulmonary resistance and lung compliance in the anaesthetised spontaneously respiring guinea pig. The compounds were administered intravenously.

Test [5] concerns bronchoconstriction induced by an histamine aerosol. As to the kind of experiment: Protection of conscious guinea pigs against bronchoconstriction induced by histamine aerosol (Herxheimer test). The following applies: aerosol generated from a 100 μg/ml solution. The format is in vivo, guinea pig. The procedure:
3. The compounds were also examined for their ability to protect conscious guinea pigs against bronchoconstriction induced by an histamine aerosol (Herxheimer test). In these experiments the compounds were administered by aerosol administration.

Where two headings read alike, the source gives them in different places.

What is called IC50 is the concentration that gives 50% inhibition. Consider `CCCCCCC(O)CCN1C(=O)CC2OC(CCCCC(=O)OCC)CC21` (single isomer, unassigned) [Example 4 (Higher Rf epimer), 2-(4'-ethoxycarbonyl-n-butyl)-4-(3"-hydroxy-n-nonyl)-5-oxo-5H-hexahydrofuro[3,2b]pyrrole], for which the 50% inhibitory concentration (IC50) came out at 2.9 µM in test [1] and 7.4 µM in test [2].

Regarding `CCCCCCC(O)CCN1C(=O)CC2OC(CCCCC(=O)OCC)CC21` (single isomer, unassigned) [Example 4 (Lower Rf epimer), 2-(4'-ethoxycarbonyl-n-butyl)-4-(3"-hydroxy-n-nonyl)-5-oxo-5H-hexahydrofuro[3,2b]pyrrole], the values for the IC50 in test [1] and in test [2] were 28 µM and 120 µM, respectively.

Consider `CCCCCCC(C)(O)CCN1C(=O)CC2OC(CCCCC(=O)OCC)CC21` (stereo not shown) [Example 1, 2-(4'-Ethoxycarbonyl-n-butyl)-4-(3"-hydroxy-3"-methyl-n-nonyl)-5-oxo-5H-hexahydro-furo[3,2-b]pyrrole], for which the IC50 worked out at 8.8 µM in test [1] (Homo sapiens, Platelet) and 35 µM in test [2] (Homo sapiens, Platelet). Further, the ED50 in test [3] (Cavia porcellus, iv, mean of 3 experiments, read-out: ED 50 against 5-hydroxytryptamine induced bronchoconstriction) was found to be 0.131 mg/kg; in test [4] (lung compliance, read-out: ED 50 against compliance changes), 0.046 mg/kg; in test [4] (pulmonary resistance, read-out: ED 50 against resistance changes) it was 0.033 mg/kg. For the same molecule, in test [3] (i.v., range of 3 experiments), the “ED 50 range against 5-hydroxytryptamine induced bronchoconstriction” value was in the range of 0.115 to 0.15 mg/kg. In addition, the “protection against histamine challenge” value in test [5] is reported as “highly significant protection”.

`CCCCCC(O)CCN1C(=O)CC2OC(CCCCC(=O)OC)CC21` (stereo not shown) [Example 3, 4-(3"-Hydroxy-n-octyl)-2-(4'-methoxycarbonyl-n-butyl)-5-oxo-5H-hexahydrofuro[3,2-b]pyrrole]: the IC50 in test [1] (Homo sapiens, Platelet) stood at 1.7 µM; in test [2] (Homo sapiens, Platelet), 4.9 µM.

Regarding `CCOC(=O)CCCCC1CC2C(CC(=O)N2CCC(C)(O)CC2CCCCC2)O1` (stereo not shown) [Example 5, 2-(4'-ethoxycarbonyl-n-butyl)-4-(3"-hydroxy-3"-hydroxy-3"-methyl-4"-cyclohexyl-n-butyl)5-oxo-5H-hexahydro-furo [3-2b]pyrrole], the IC50 in test [1] (Homo sapiens, Platelet) stood at 17 µM; in test [2] (Homo sapiens, Platelet) it was 100 µM.

For `CCOC(=O)CCCCCC1CC2C(CC(=O)N2CCC(C)(O)C2CCCCC2)O1` (stereo not shown) [Example 6, 2-(5'-ethoxycarbonyl-n-pentyl)-4-(3"-hydroxy-3"-cyclohexyl-n-butyl)-5-oxo-5H-hexahydro-furo[3,2b]pyrrole], the IC50 in test [1] (Homo sapiens, Platelet) was found to be 1.2 µM; in test [2] (Homo sapiens, Platelet), 2.5 µM.

As to `CCOC(=O)CCCCC1CC2C(CC(=O)N2CCC(C)(O)C2CCCCC2)O1` (stereo not shown) [Example 7, 2-(5'-ethoxycarbonyl-n-butyl)-4-(3"-hydroxy-3"-cyclohexyl-n-butyl)-5-oxo-5H-hexahydro-furo[3,2b]pyrrole], the 50% inhibitory concentration (IC50) amounted to 0.26 µM in test [1] (Homo sapiens, Platelet) and 0.54 µM in test [2] (Homo sapiens, Platelet).
